In brackets after ≈: the same amount, converted by molar mass.

For this series the following is noted: buffer; pH 7.4; 200.0 µM.
Compound `NC(=O)c1cc([N+](=O)[O-])ccc1NCCc1ccccc1` yielded a kinetic solubility of under 0.2 µg/mL.
The result for `Cc1ccc(NC(=O)CSc2nc3ccccc3c(=O)[nH]2)cc1[N+](=O)[O-]` reads 3.6 µg/mL (≈ 9.72 µM); that for `CCCC(=O)Nc1ccc(-c2csc(-c3cccnc3)n2)cc1`, 0.7 µg/mL (≈ 2.16 µM); that for `O=C(O)COc1ccccc1-c1nc(-c2ccccc2)c(-c2ccccc2)[nH]1`, 46.1 µg/mL (≈ 124 µM).
Regarding `O=C(COc1ccc(Cl)cc1)NCCc1cnc[nH]1`, the kinetic solubility was over 42 µg/mL.
Compound `CCN1C(=O)N(c2ccc(C(C)=O)cc2)S(=O)(=O)c2ccccc21` returned a solubility (kinetic) of 47.6 µg/mL (≈ 138 µM).
Under `COc1ccc(Cl)cc1C(=O)OCC(=O)N1CCCC(C)C1` (centres undefined) stands over 48.9 µg/mL; under `Cc1cc(=O)c(C(=O)O)nn1-c1cccc(C(F)(F)F)c1`, over 44.7 µg/mL.
The result for `CN(Cc1cnccn1)Cc1nc(Cc2cccc(F)c2)no1` reads 46.3 µg/mL (≈ 148 µM).
Under `COc1ccc(S(=O)(=O)NCCc2c[nH]c3ccc(C)cc23)cc1` stands 17.3 µg/mL (≈ 50.2 µM); under `CC(C)NC(=O)CSc1ncccc1-c1nc2ccccc2[nH]1`, 46.9 µg/mL (≈ 144 µM).
Take `O=C(NCc1ccc2c(c1)OCO2)c1sccc1Br`: the kinetic solubility was found to be 48.4 µg/mL (≈ 142 µM).
The result for `CCCCCCn1c(=O)[nH]c2c(c1=O)CCC2` reads over 35.4 µg/mL; that for `COc1cc(CN2CCCCCC2)cc(Br)c1O`, 39.6 µg/mL (≈ 126 µM).
The result for `COc1ccccc1CC(=O)N1CCN(c2ccccc2F)CC1` reads 46.8 µg/mL (≈ 143 µM); that for `O=S(=O)(c1ccc(-c2ccccn2)s1)N1CCC2(CC1)OCCO2`, 1.5 µg/mL (≈ 4.09 µM).
Turning to `N#Cc1nc(-c2ccc(F)cc2)oc1N1CCC(C(N)=O)CC1`, the kinetic solubility stood at 12.4 µg/mL (≈ 39.5 µM).
The result for `COc1ccc(CCNC(=O)CSCC(=O)Nc2cc(S(C)(=O)=O)ccc2Cl)cc1` reads 18.6 µg/mL (≈ 39.5 µM).
Under `N#CCc1nc(-c2cc3ccccc3oc2=O)cs1` stands 5.4 µg/mL (≈ 20.1 µM); under `CCN(CC)C(=O)N1CCN(S(=O)(=O)c2ccccc2)CC1`, over 48.8 µg/mL.
`NS(=O)(=O)c1ccc(F)c(C(=O)O)c1`: the kinetic solubility is over 32.9 µg/mL.
Consider `O=C(Cn1ccnc1)c1ccc(Cl)cc1`, for which the kinetic solubility stood at 31.5 µg/mL (≈ 143 µM).
For `O=C(NC1CCCCC1)c1cc2cc(Br)ccc2o1`, the solubility (kinetic) was under 0.7 µg/mL.
The result for `COc1ccc(C(=O)Nc2ccccc2NC(=O)c2ccc(OC)cc2)cc1` reads under 0.4 µg/mL.
With `COc1ccc(/C(C)=N/N2C(C)CCCC2C)c(OC)c1` (centres undefined), the kinetic solubility was over 43.6 µg/mL.
Compound `CSc1ncccc1C(=O)Nc1ncc(C)s1` yielded a kinetic solubility of 5.7 µg/mL (≈ 21.5 µM).
Under `O=C(OCC(=O)N1CCOCC1)c1ccc(O)cc1` stands 31 µg/mL (≈ 117 µM); under `O=C(CCC1CCN(Cc2ccccc2Cl)CC1)NC1CC1`, over 48.1 µg/mL.
`CC(C)(C)NC(=O)CSc1nc(-c2ccc(F)cc2)cs1` came in with a kinetic solubility of 6.6 µg/mL (≈ 20.3 µM).
The compound `Clc1ccc(N=c2ssnc2Cl)nc1` displayed a kinetic solubility of 1 µg/mL (≈ 3.79 µM).
The compound `Cc1ccc(NC(=O)CNC(=O)C2CCCCC2)nc1` showed a solubility (kinetic) of over 41.3 µg/mL.
As to `CCn1c(SCc2ccccc2)nc2cc(OC)c(OC)cc2c1=O`, the solubility (kinetic) was under 0.4 µg/mL.
The result for `Clc1ccc(-c2noc(/C=C/c3ccccc3)n2)cc1` reads under 0.3 µg/mL.
The result for `Br.Nc1ncc([N+](=O)[O-])cc1Br` reads over 44.8 µg/mL; that for `CCN(CC(=O)NCc1cccs1)C(=O)Cc1ccc(C)c(C)c1`, over 51.7 µg/mL; that for `CCN(C(=O)CSc1ncccc1C(=O)O)C1CCCCC1`, over 48.4 µg/mL.
With `CCCNC(=O)c1ccc(COc2ccc(CCC)cc2OC)o1`, the kinetic solubility is over 49.7 µg/mL.
For `Cc1nc(CSc2ccc(Br)cc2)cs1`, the kinetic solubility amounted to 8.8 µg/mL (≈ 29.3 µM).
The compound `N#Cc1c(-c2cccc(Cl)c2)[nH]c(=S)[nH]c1=O` registered a kinetic solubility of over 39.6 µg/mL.
In the case of `Cc1cccn2c(=O)nc(SCC(=O)NCc3ccc(F)cc3)nc12`, the solubility (kinetic) was over 53.8 µg/mL.
The result for `O=C(COC(=O)/C=C/c1cccc(F)c1)Nc1cccc(S(=O)(=O)NC2=NCCCCC2)c1` reads 18.3 µg/mL (≈ 38.6 µM); that for `CCOc1ccc(NC(=S)N(CCc2ccncc2)C(C)C)cc1`, 48.8 µg/mL (≈ 142 µM); that for `O=[N+]([O-])c1cccnc1SCc1ccccc1`, 0.3 µg/mL (≈ 1.22 µM).
`Cc1ccc(C(=O)CSc2nc(N)cc(=O)[nH]2)cc1C`: the solubility (kinetic) is 12.8 µg/mL (≈ 44.2 µM). This solubility kinetic is about 43-fold higher than that of the compound before.
For `CCOC(=O)COc1c(C(=O)OC)sc2ncccc12`, the kinetic solubility stood at 35.6 µg/mL (≈ 121 µM).
Under `O=C(O)c1cc([N+](=O)[O-])ccc1NCCc1ccccc1` stands over 42.9 µg/mL.
Under `O=C(NCCc1ccncc1)Nc1ccc(Cl)c(Cl)c1` stands over 46.5 µg/mL; under `COc1ccc(C2CC(=O)NC(=O)C2)cc1`, 22.3 µg/mL (≈ 102 µM).
`CCOc1cccc2sc(=NC(=O)c3ccco3)n(CC(=O)OC)c12` showed a kinetic solubility of 2 µg/mL (≈ 5.55 µM).
Consider `O=C(/C=C/c1cccc([N+](=O)[O-])c1)N1CC[C@@]2(O)CCCC[C@H]2C1`, for which the solubility (kinetic) was over 49.6 µg/mL.
The compound `O=[N+]([O-])c1ccc2ccn(C3OCC(O)C(O)C3O)c2c1` (centres undefined) had a kinetic solubility of over 44.1 µg/mL.
The result for `Cc1ccccc1NC(=O)CSc1nc2scc(C)c2c(=O)[nH]1` reads 1.4 µg/mL (≈ 4.05 µM).
For the compound `COc1cc2sc(NC(=O)c3ccco3)nc2cc1Cl`, the kinetic solubility is under 0.3 µg/mL.
`C/C(=N/NC(=O)CNC(=O)c1cccnc1)c1ccccc1` returned a solubility (kinetic) of over 44.4 µg/mL.
The result for `O=C(Nc1ccccn1)c1cc(-c2cccc(Cl)c2)nc2ccccc12` reads under 0.3 µg/mL; that for `Cc1ccc(/C=C/C(=O)O)cc1S(=O)(=O)N1CCC(Cc2ccccc2)CC1`, 53.2 µg/mL (≈ 133 µM); that for `N#Cc1ccccc1CSc1nc(N)cc(N)n1`, 36.6 µg/mL (≈ 142 µM).
Turning to `CCOC(=O)C1=C(C)NC(=O)NC1c1c(OC)ccc2ccccc12` (centres undefined), the solubility (kinetic) was determined as 0.7 µg/mL (≈ 2.06 µM).
The result for `O=C(COC(=O)CC1CCCC1)Nc1ccc(Cl)cn1` reads 9.1 µg/mL (≈ 30.7 µM).
Regarding `O=C(Cc1ccccc1)Nc1cc([N+](=O)[O-])ccc1N1CCOCC1`, the solubility (kinetic) was found to be 9.8 µg/mL (≈ 28.7 µM).
`O=C(CSc1ncccn1)NCc1ccc2c(c1)OCO2`: the solubility (kinetic) was over 45.5 µg/mL.
Under `O=C(Cn1c(=O)sc2ccccc21)Nc1ccc(O)cc1` stands over 45 µg/mL; under `CCCCCCc1c(O)nc(SCCN(C)C)[nH]c1=O`, 32.8 µg/mL (≈ 110 µM); under `Cc1ccc(-c2noc(COC(=O)c3ccco3)n2)cc1`, 8.8 µg/mL (≈ 31 µM).
Under `Clc1cccc(CN2CCCCCC2)c1` stands 14.3 µg/mL (≈ 63.9 µM); under `CN(Cc1cn(C)nc1-c1ccccc1F)Cc1nccn1C`, over 47 µg/mL; under `O=C(COC(=O)C1(c2ccccc2F)CCCC1)N1CCNC1=O`, over 50.2 µg/mL.
The result for `Oc1ccc(-c2ccccc2)cc1CN1CCCCCC1` reads 17.4 µg/mL (≈ 61.8 µM); that for `CCOC(=O)c1cccc(NC(=O)c2ccccc2C)c1`, 33.1 µg/mL (≈ 117 µM); that for `O=C(NCc1ccccc1)C12CC3CC(CC(Cl)(C3)C1)C2`, 5 µg/mL (≈ 16.5 µM).
In turn, `Cc1ccc(C)c(Nc2ccc3nonc3c2[N+](=O)[O-])c1` returned a solubility (kinetic) of 2 µg/mL (≈ 7.04 µM).
The result for `Cl.Oc1cc2c(cc1O)C(c1ccccc1)CNCC2` (centres undefined) reads over 43.8 µg/mL; that for `CCN(CC)c1ccc(NC(=O)c2ccccc2Br)cc1S(=O)(=O)Nc1ccccc1OC`, 0.6 µg/mL (≈ 1.13 µM).
Under `COc1ccc(CC(=O)OCC(=O)Nc2cc(Cl)ccc2C)cc1` stands 7 µg/mL (≈ 20.1 µM).

One may read the solubility (kinetic) as solubility judged after dilution from a stock solution rather than from solid.

These data come from PubChem BioAssay AID1996.
